The text below walks through data of article PMC9601613, “Development of a Fluorescence Polarization Assay for Multi-Determination of 10 Aminoglycosides in Pork Muscle Sample Based on Ribosomal Protein S12 and Studying Its Recognition Mechanism” (Foods, 2022).

For orientation: IC50 means the point on the concentration scale where inhibition reaches its midpoint. Read a low IC50 as higher potency. The Kd is the free concentration of one partner at which half of the binding sites on the other are occupied at equilibrium, for simple one-to-one binding. Lower therefore signals a tighter complex.

Test [1] addresses T1, RpsL12 (ribosomal protein S12) (Lysinibacillus sphaericus, UniProt B1HMZ3).
T1 construct: gene rpsL; isolated ribosomal protein without rRNA; 426 bp gene in pET32a(+), purified from soluble fraction of E. coli BL21
T1 sequence (B1HMZ3 1-139): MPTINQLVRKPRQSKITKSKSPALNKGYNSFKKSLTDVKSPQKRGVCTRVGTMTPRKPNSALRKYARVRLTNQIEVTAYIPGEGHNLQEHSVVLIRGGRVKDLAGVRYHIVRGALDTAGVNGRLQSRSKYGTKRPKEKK
Description: fluorescence polarization competition with tracer STR-FITC. The test is classed as binding. The source says: fluorescence polarization competition with tracer STR-FITC on RpsL12 (ribosomal protein S12)
For orientation: Polarisation of emitted light reports the rotation of a fluorescent probe.

Test [2] deals with T1, RpsL12 (ribosomal protein S12). Description: biochemical. Details: surface plasmon resonance, binding kinetics and equilibrium dissociation constant of aminoglycosides to RpsL12. Conditions: for kon: read-out: Ka; for koff: read-out: Kd. The procedure:
The affinities of the RpsL12 for the 10 AGs were determined by using the surface plasmon resonance technique (SPR), and the assay procedures were performed according to our recent report (see Supplementary Materials). During the SPR test, the association constant (Ka), dissociation constant (Kd), and equilibrium dissociation constant (KD = Kd/Ka) for the 10 AGs were determined. Furthermore, the absolute affinity constants (KA=Log2(KD)) for the 10 AGs were also calculated, which were used to conveniently compare their affinities. For confirmation of the molecular docking results, the receptor affinities for the 10 drugs were also determined by SPR. […] The recognition mechanisms of RpsL12 protein for AGs reported in the present study were more comprehensive than the previous report. The recombinant plasmids were synthesized at Sangon Biotech Co., Ltd. (Shanghai, China) by inserting the RpsL12 gene of Lysinibacillus sphaericus (GenBank ID: AHC30887.1) into the express vector pET32a(+). The plasmids containing the express vector pET32a-RpsL12 were transformed into BL21 (D3) for acculturation, and the gene products in the positive colonies were characterized by a polymerase chain reaction and DNA sequencing. Then the RpsL12 was expressed with the same procedures as those described in our recent report (see Supplementary Materials), and the obtained product was analyzed with SDS-PAGE electrophoresis and Western blotting.

The target is the same in test [3]. Briefly: surface plasmon resonance. Conditions: log2-transformed affinity, not an association constant in 1/M; sign as printed; KD itself only in supplement. The test is classed as binding. The source says: surface plasmon resonance on RpsL12 (ribosomal protein S12)
For orientation: SPR reads the build-up and loss of mass on a sensor chip optically.

Consider `CCN[C@@H]1C[C@H](N)[C@@H](O[C@H]2O[C@H](CN)CC[C@H]2N)[C@H](O)[C@H]1O[C@H]1OC[C@](C)(O)[C@H](NC)[C@H]1O` [etimicin], for which the IC50 in test [1] is 129 nM. In test [2], binding was put at a Kd of 381000 nM, the kon stood at 51.2 M⁻¹ s⁻¹ and the koff was 0.0195 s⁻¹. For the same compound, in test [3], the KA is reported as 11.358.

Compound `CNC[C@@H]1CC[C@@H](N)[C@@H](O[C@H]2[C@H](O)[C@@H](O[C@H]3OC[C@](C)(O)[C@H](NC)[C@H]3O)[C@H](N)C[C@@H]2N)O1` [micronomicin] showed an IC50 in test [1] of 137 nM. In test [2], the Kd was 38500 nM, the kon was determined as 141 M⁻¹ s⁻¹ and the koff was determined as 0.00543 s⁻¹. Moreover, the KA in test [3] came out at 14.666.

As for `NC[C@@H]1O[C@H](O[C@H]2[C@@H](O)[C@H](O[C@@H]3[C@@H](O)[C@H](N)C[C@H](N)[C@H]3O[C@H]3O[C@H](CN)[C@@H](O)[C@H](O)[C@H]3N)O[C@@H]2CO)[C@H](N)[C@@H](O)[C@@H]1O` [neomycin], in test [1], the IC50 was 78.6 nM. In addition, in test [2], the Kd came out at 14.9 nM, the kon came to 3150 M⁻¹ s⁻¹ and the koff is 4.7e-05 s⁻¹. Moreover, the KA in test [3] turned out to be 25.997.

For `NCC[C@H](O)C(=O)N[C@@H]1C[C@H](N)[C@@H](O[C@H]2O[C@H](CN)[C@@H](O)[C@H](O)[C@H]2O)[C@H](O)[C@H]1O[C@H]1O[C@H](CO)[C@@H](O)[C@H](N)[C@H]1O` [amikacin], the IC50 in test [1] was 116 nM. In test [2], the Kd was 42.5 nM, the kon turned out to be 1690 M⁻¹ s⁻¹ and the koff was 7.2e-05 s⁻¹. Moreover, the KA in test [3] is 24.487.

Turning to `CN[C@@H]1[C@@H](O[C@H]2O[C@H](CO)[C@@H](N)[C@H](O)[C@H]2O)O[C@H]2C[C@@H](N)[C@@H](O[C@H]3[C@H](O)[C@@H](O)[C@H](N)C[C@@H]3N)O[C@@H]2[C@@H]1O` [apramycin], in test [2], the kon came out at 20200 M⁻¹ s⁻¹ and the koff came to 0.000281 s⁻¹.

Compound `NC[C@@H]1O[C@H](O[C@H]2[C@@H](O)[C@H](O[C@@H]3[C@@H](O)[C@H](N)C[C@H](N)[C@H]3O[C@H]3O[C@H](CO)[C@@H](O)[C@H](O)[C@H]3N)O[C@@H]2CO)[C@H](N)[C@@H](O)[C@@H]1O` [paromomycin] had an IC50 in test [1] of 117 nM. Further, in test [2], the affinity, expressed as Kd, was 66.1 nM; the kon came to 263000 M⁻¹ s⁻¹; the koff is 0.0174 s⁻¹. The KA in test [3] is on record as 23.851.

Take `CN[C@@H]1[C@H](O[C@H]2[C@H](O[C@H]3[C@H](O)[C@@H](O)[C@H](N=C(N)N)[C@@H](O)[C@@H]3N=C(N)N)O[C@@H](C)[C@]2(O)C=O)O[C@@H](CO)[C@H](O)[C@H]1O` [streptomycin]: the IC50 in test [1] is 102 nM. Moreover, in test [2], binding was put at a Kd of 37.5 nM, the kon came out at 8200 M⁻¹ s⁻¹ and the koff was determined as 0.000307 s⁻¹. This compound also registered a KA in test [3] of 24.670.

Regarding `CNC(C)[C@@H]1CC[C@@H](N)[C@@H](O[C@H]2[C@H](O)[C@@H](O[C@H]3OC[C@](C)(O)[C@H](NC)[C@H]3O)[C@H](N)C[C@@H]2N)O1` (stereo partly drawn) [gentamicin], in test [2], the dissociation constant Kd amounted to 4720 nM, the kon came out at 2180 M⁻¹ s⁻¹ and the koff is 0.0103 s⁻¹.

The compound `CN[C@@H]1[C@H](O)[C@H](NC)[C@H]2O[C@@]3(O)C(=O)C[C@@H](C)O[C@H]3O[C@@H]2[C@H]1O` [spectinomycin] had an IC50 in test [1] of 188 nM. Besides, in test [2], binding was put at a Kd of 63.9 nM, the kon was 211000 M⁻¹ s⁻¹ and the koff stood at 0.0135 s⁻¹. The KA in test [3] was 23.900.

Regarding `CCNC1CC(N)C(OC2OC(CN)=CCC2N)C(O)C1OC1OCC(C)(O)C(NC)C1O` (stereo not drawn) [netimicin], in test [2], the kon turned out to be 37.1 M⁻¹ s⁻¹ and the koff was determined as 0.00141 s⁻¹.
